Legend:
L1210 mouse leucemia = assay: inhibition of colony formation in soft agar (colony assay), L1210; assay type: cell-based; settings: for Cytotoxicity in vitro EC90 L 1210: concentration giving 90% inhibition of colony formation, determined by graph, 6 days incubation; for activity against L 1210 cells (ranking in words): among the compounds of the table
Description: (§1) The effectiveness of the compounds defined in accordance with the invention was tested as to their in vitro cytotoxicity. The investigations about inhibition of colony formation in soft agar (colony assay) were carried out in conformity with the method of Hamburger and Salmon (A. W. Hamburger, S. E. Salmon, "Primary Bioassay of Human Myeloma Stem Cells", J. Clin. Invest. 60: 846-854 (1977); A. W. Hamburger and S. E. Salmon, "Primary Bioassay of Human Tumor Stem Cells", Science 197: 461-463 (1977)). The tumor cells were incubated in RPMI-1640 medium with 20% fetal calf serum and 0.3% agar in the presence of different concentrations of the test substance at 37° C., 95% relative air humidity and 5% CO2. Triple values were taken in each instance. The incubation time was 6 days for L1210 mouse leucemia and 8 days for KB human mucous-membrane carcinoma. The colonies formed (>50 cells) were subsequently counted.

[1] = tested on: KB human mucous-membrane carcinoma; assay: inhibition of colony formation in soft agar (colony assay), KB; assay type: cell-based; settings: for Cytotoxicity in vitro EC90 KB: concentration giving 90% inhibition of colony formation, determined by graph, 8 days incubation; for activity against KB cells (ranking in words): among the compounds of the table
Description: as §1

[2] = tested on: ovarian carcinoma OVXF 899; assay: human tumors transplanted into the naked mouse, OVXF 899; assay type: in vivo; settings: OVXF 899 xenograft, same conditions (45 mg/kg i.p. per day 1.5 and 9)
Description: (§2) The compound H-LYS(LYS)-NHC18 H37.3HCL (D-21621) was tested separately on human tumors transplanted into the naked mouse. […] This tumor is resistant to all standard cytostatic agents.

[3] = tested on: small-cell bronchial carcinoma LXFS 538; assay: human tumors transplanted into the naked mouse, LXFS 538; assay type: in vivo; settings: LXFS 538 xenograft, 45 mg/kg i.p. per day 1.5 and 9
Description: as §2

| Molecule | Cytotoxicity in vitro EC90 L 1210 (L1210 mouse leucemia) | Cytotoxicity in vitro EC90 KB [1] | tumor inhibition [2] | tumor inhibition [3] | activity against KB cells (ranking in words) [1] | activity against L 1210 cells (ranking in words) (L1210 mouse leucemia) |
| --- | --- | --- | --- | --- | --- | --- |
| CCCCCCCCCCCCCCCCCCNC(=O)C(N)CCCNC(=O)C(N)CCCN.Cl.Cl.Cl [D-20 989, H--ORN(ORN)--NHC18 H37.3HCL] | 3.1 µg/mL | 1.3 µg/mL |  |  |  |  |
| H--ORN[(ORN)ORN]--NHC18 H37 4HCl [D-20 990] | > 10 µg/mL | 1.7 µg/mL |  |  |  |  |
| CCCCCCCCCCCCCCCCCCNC(=O)C(N)CCCCNC(=O)C(N)CCCCN.Cl.Cl.Cl [D-21 621, H--LYS(LYS)--NHC18 H37.3HCl] | 2.2 µg/mL | 1.4 µg/mL | 46 % of the control | 37 % of the control |  |  |
| Br.Br.Br.CCCCCCCCCCCCCCCCCCNC(=O)C(N)CCCCNC(=O)C(N)CCCCN [D-20 994, H--LYS(LYS)--NHC18 H37.3HBr] | 3.2 µg/mL | 0.8 µg/mL |  |  | highest activity |  |
| CCCCCCCCCCCCCCNC(=O)C1CSCN1 [D-21 979, H--THZ--NHC14 H29] | 0.3 µg/mL | 3.1 µg/mL |  |  |  | highest activity |
| CCCCCCCCCCCCCCCCCCNC(=O)[C@H](N)CCCCNC(=O)[C@H](N)CCCCN.Cl.Cl.Cl [D-22 628, H--D--LYS(D--LYS)--NHC18 H37.3HCL] | 0.8 µg/mL | 1.1 µg/mL |  |  |  | highest activity |
| CCCCCCCCCCCCCCCCCCNC(=O)C(CCCCN)NC(=O)C(N)CCCCN [D-22 267, H--LYS--LYS--NHC18 H37] | 3.1 µg/mL | 0.3 µg/mL |  |  | highest activity |  |
| H--LYS[(LYS)LYS]--NHC18 h37.4HBr [D-20 995] | > 3 µg/mL | 0.9 µg/mL |  |  | highest activity |  |
| CCCCCCCCCCCCCCCCNC(=O)C1CSCN1 [D-21 980, H--THZ--NHC16 H33] | 3.4 µg/mL | 3.1 µg/mL |  |  |  |  |

From patent publication US5770574A, “Long-chain alkylamides of amino acids and peptides with anti-proliferative and anti-inflammatory properties” (ASTA Medica Aktiengesellschaft, priority 1994, dated 1998)
